Patent US5962682A, “Aryl- and hetaryl-sulfonamide derivatives, their preparation and their use as endothelin antagonists” (Hoffmann-La Roche Inc., priority 1994, dated 1999)
pEC50, pIC50: −log10 of the molar value.

Assays:
[1] = biological target: T1, human ETA receptors (Homo sapiens, UniProt P25101); experiment: Inhibition of Endothelin Binding to Recombinant ETA Receptors; conditions: inhibition of 50% of the specific binding of 125I-endothelin (20 pM), baculovirus-insect cell membranes
T1 construct: made in house
T1 sequence (P25101 21-427): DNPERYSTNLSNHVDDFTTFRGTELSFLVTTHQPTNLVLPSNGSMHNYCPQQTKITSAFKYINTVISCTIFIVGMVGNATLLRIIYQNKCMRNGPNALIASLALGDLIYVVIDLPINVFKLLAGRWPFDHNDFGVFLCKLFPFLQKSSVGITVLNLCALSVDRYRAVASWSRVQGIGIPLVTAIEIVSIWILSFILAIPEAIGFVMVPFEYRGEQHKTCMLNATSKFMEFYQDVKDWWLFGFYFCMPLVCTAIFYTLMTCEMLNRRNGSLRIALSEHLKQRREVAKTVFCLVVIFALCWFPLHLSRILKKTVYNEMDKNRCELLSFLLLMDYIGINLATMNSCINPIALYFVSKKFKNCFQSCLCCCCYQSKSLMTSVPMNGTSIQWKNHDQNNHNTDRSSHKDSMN
Procedure: I: Inhibition of Endothelin Binding to Recombinant ETA Receptors
A cDNA coding for human ETA receptors of human placenta was cloned (M. Adachi, Y.-Y. Yang, Y. Furuichi and C. Miyamoto, BBRC 180, 1265-1272) and expressed in the baculovirus-insect cell system. Baculovirus-infected insect cells from a 23 l fermenter are centrifuged off (3000×g, 15 minutes, 4° C.) 60 hours after the infection, re-suspended in Tris buffer (5 mM, pH 7.4, 1 mM MgCl2) and again centrifuged. After a further re-suspension and centrifugation the cells are suspended in 800 ml of the same buffer and […] at -120° C. The cells disintegrate when the suspension in this hypotonic buffer mixture is thawed. After a repeated freeze-drying/thawing cycle the suspension is homogenized and centrifuged (25000×g, 15 minutes, 4° C.). After suspension in Tris buffer (75 mM, pH 7.4, 25 mM MgCl2, 250 mM saccharose) 1 ml aliquots (protein content about 3.5 mg/ml) are stored at -85° C.
(§1) For the binding assay, the freeze-dried membrane preparations are thawed and, after centrifugation at 20° C. and 25000 g for 10 minutes, re-suspended in assay buffer (50 mM Tris buffer, pH 7.4, containing 25 mM MnCl2, 1 mM EDTA and 0.5% bovine serum albumin). 100 μl of this membrane suspension containing 5 μg of protein are incubated with 50 μl of ^125 I-endothelin (specific activity 2200 Ci/mMol) in assay buffer (25000 cpm, final concentration 20 pM) and 100 μl of assay buffer containing varying concentrations of test compound. The incubation is carried out at 20° C. for 2 hours or at 4° C. for 24 hours. The separation of free and membrane-bound radio-ligands is carried out by filtration over a glass fibre filter.
(§2) The inhibitory activity on ETA and ETB receptors of compounds of formula I determined in these test procedures is given in Table 1 as the IC50, i.e. as the concentration [μM] which is required to inhibit 50% of the specific binding of ^125 I-endothelin.

[2] = tested on: Isolated Rat Aorta Rings; experiment: Inhibition of Endothelin-Induced Contractions in Isolated Rat Aorta Rings; assay type: cell-based, rat (Wistar-Kyoto); conditions: for Kb: Rattus norvegicus, Table 2, text calls these the pA2 values, endothelin-1 contraction, endothelium removed, 37° C, 10 min preincubation, read-out: Dosage ratio (switch to the right) (converted)
Procedure: III. Inhibition of Endothelin-Induced Contractions in Isolated Rat Aorta Rings
Rings with a length of 5 mm were cut out from the thorax aorta of adult Wistar-Kyoto rats. The endothelium was removed by lightly rubbing the internal surface. Each ring was immersed at 37° C. in 10 ml of Krebs-Henseleit solution in an isolated bath while gassing with 95% O2 and 5% CO2. The isometric stretching of the rings was measured. The rings were stretched to a pretension of 3 g. After incubation for 10 minutes with the test compound or vehicle cumulative dosages of endothelin-1 were added. The activity of the test compound was ascertained by the observed shift to the right of the dosage-activity curve of endothelin-1 in the presence of different concentrations of antagonist. This shift to the right (or "dose ratio", DR) corresponds to the quotient from the EC50 values of endothelin-1 in the presence and in the absence of antagonist, with the EC50 value denoting the endothelin concentration required for a half-maximum contraction.
The corresponding PA2 value, which is a measure of the activity of the test compound, was calculated using a computer programme according to the following equation from the "dose ratio" DR for each individual dosage-activity curve.
pA2 =log(DR-1)-log(antagonist-concentration)
The EC50 of endothelin in the absence of test compounds is 0.3 nM.

[3] = biological target: T2, ETB receptor (Homo sapiens, UniProt P24530); experiment: Inhibition of Endothelin Binding to Human Placenta Membranes (ETB receptor); conditions: inhibition of 50% of the specific binding of 125I-endothelin (20 pM)
T2 construct: Human placenta is homogenized in 5 mM Tris buffer; from tissue; host or cells: human placenta membranes
T2 sequence (P24530 27-442): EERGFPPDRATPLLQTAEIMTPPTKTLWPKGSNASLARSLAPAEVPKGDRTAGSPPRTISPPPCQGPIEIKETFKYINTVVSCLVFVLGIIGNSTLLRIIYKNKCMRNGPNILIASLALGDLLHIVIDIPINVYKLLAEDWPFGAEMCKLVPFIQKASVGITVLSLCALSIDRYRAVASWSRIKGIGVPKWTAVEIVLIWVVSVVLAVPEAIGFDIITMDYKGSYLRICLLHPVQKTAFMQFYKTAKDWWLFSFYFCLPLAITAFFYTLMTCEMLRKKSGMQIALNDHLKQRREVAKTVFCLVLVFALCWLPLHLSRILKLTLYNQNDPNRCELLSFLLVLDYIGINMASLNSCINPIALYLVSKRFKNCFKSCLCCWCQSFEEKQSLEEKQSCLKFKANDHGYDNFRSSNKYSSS
Procedure: II: Inhibition of Endothelin Binding to Human Placenta Membranes (ETB receptor) (see. Life Sci 44:1429 (1989))
Human placenta is homogenized in 5 mM Tris buffer, pH 7.4, which contains 1 mM MgCl2 and 250 mM sucrose. The homogenizate is centrifuged at 4° C. and 3000 g for 15 minutes, the supernatant containing the plasma membrane fraction is centrifuged at 72000 g for 30 minutes and the precipitate is washed with 75 mM Tris buffer, pH 7.4, which contains 25 mM MgCl2. Thereafter, precipitate obtained from in each case 10 g of original tissue is suspended in 1 ml of 75 mM Tris buffer, pH 7.4, containing 25 mM MgCl2 and 250 mM sucrose, and freeze-dried at -20° C. in 1 ml aliquots.
as §1, with “containing 35” for “containing 5”, “with” for “with 50”
as §2

| Molecule | pIC50 [1] | Kb [2] [nM] | pIC50 [3] | pEC50 ([2]; half-maximum contraction, absence of test compounds) |
| --- | --- | --- | --- | --- |
| CCOC(=O)N1CCN(C(=O)c2cc(NS(=O)(=O)c3ccc(C(C)C)cn3)c(Oc3ccccc3OC)c(OCCOC(=O)Nc3ccccn3)c2)CC1 [Example 36, ethyl 4-{3-(5-iso-propyl-pyridine-2-sulphonylamino)-4-(2-methoxy-phenoxy)-5-[2-(pyridin-2-ylcarbamoyloxy)-ethoxy]-benzoyl}-piperazine-1-carboxylate] | 8.70 | 6.31 | 6.19 |  |
| COc1cccc(Oc2c(NS(=O)(=O)c3ccc(C(C)(C)C)cc3)cc(C(=O)Nc3ccccc3)cc2OCCO)c1 [Example 89, 3-(4-tert-butylbenzenesulphonylamino)-5-(2-hydroxy-ethoxy)-4-(3-methoxy-phenoxy)-N-phenyl-benzamide] | < 4.00 |  | 7.19 |  |
| COc1ccccc1Oc1c(NS(=O)(=O)c2ccc(C(C)C)cn2)cc(C(=O)N2CCOCC2)cc1OCCOC(=O)Nc1ccccn1 [Example 31, pyridin-2-yl-carbamicacid 2-[3-(5-isopropyl-pyridine-2-sulphonylamino)-2-(2-methoxy-phenoxy)-5(morpholine-4-carbonyl)-phenoxy]-ethyl ester] | 8.22 |  | 6.07 |  |
| COc1ccccc1Oc1c(NS(=O)(=O)c2ccc(C(C)C)cn2)cc(C(=O)N2CCN(C)CC2)cc1OCCOC(=O)Nc1ccccn1 [Example 33, pyridin-2-yl-carbamic acid 2-[3-(5-isopropyl-pyridine-2-sulphonylamino)-2-(2-methoxy-phenoxy)-5-(4-methyl-piperazine-1-carbonyl)-phenoxy]-ethyl ester] | 8.00 | 39.8 | 6.36 |  |
| COc1cccc(Oc2c(NS(=O)(=O)c3ccc(SC)cc3)cc(C(=O)Nc3ccccc3)cc2OCCO)c1 [Example 105, 3-(2-hydroxy-ethoxy)-4-(3-methoxy-phenoxy)-5-(4-methylsulphanyl-benzenesulphonyl-amino)-N-phenyl-benzamide] | < 4.00 |  | 7.82 |  |
| COc1ccc(Cl)c(Oc2c(NS(=O)(=O)c3ccc(C(F)(F)F)cc3)cc(C(=O)Nc3ccccc3)cc2OCCO)c1 [Example 85, 4-(2-chloro-5-methoxy-phenoxy)-3-(2-hydroxy-ethoxy)-N-phenyl-5-(4-trifluoromethyl-benzenesulphonylamino)-benzamide] | 4.07 |  | 7.70 |  |
| endothelin: endothelin-1, contracting agonist added in cumulative dosages to rat aorta rings [reference compound] |  |  |  | 9.52 |
